Data on 16 compounds can be found in paper PMC6522510 (Nature Communications, 2019).

Read-outs that look alike come from different tables or passages of the source.

Common to all, as to set-up: species or system AML cell lines (8); Primary HTS, single concentration about 10 uM, Cell Titer Glo viability; log10 luminescence, per cent inhibition relative to cycloheximide control
Common to all, as to conditions: 72 h, relative to cycloheximide control, log10 luminescence, inhibitor

In experiment [1] the test system is CHRF288-11.
Experiment [2] concerns CMK.
Experiment [3] deals with CMS.
Experiment [4] has as its system M07e.
For experiment [5], the system named is ML-2.
The subject of experiment [6] is MOLM-13.
Experiment [7] concerns MV4-11.
For experiment [8], the system named is U937.

On to `CO[C@H]1C[C@@H]2CC[C@@H](C)[C@@](O)(O2)C(=O)C(=O)N2CCCC[C@H]2C(=O)O[C@H]([C@H](C)C[C@@H]2CC[C@@H](OC(=O)C(C)(CO)CO)[C@H](OC)C2)CC(=O)[C@H](C)/C=C(\C)[C@@H](O)[C@@H](OC)C(=O)[C@H](C)C[C@H](C)/C=C/C=C/C=C/1C` [SJ000518987-1, TEMSIROLIMUS | CCI-779 | NSC-683864 | TORISEL | TEMSIROLIMUS (CCI-779, NSC 683864)], for which the CHRF288-11 %inh in experiment [1] worked out at 29.37%. The CMK %inh in experiment [2] is reported as 14.34%. Also, in experiment [3], the CMS %inh was found to be 21.7%. For the same compound, in experiment [4], the M07e %inh worked out at 19.45%. Also, in experiment [5], the ML-2 %inh is on record as 9.499%. Also, the MOLM-13 %inh in experiment [6] turned out to be 6.723%. In addition, the MV4-11 %inh in experiment [7] is given as 11.74%. Moreover, the U937 %inh in experiment [8] stood at 25.81%.
On to `CC[C@H]1OC(=O)[C@H](C)[C@@H](O[C@H]2C[C@@](C)(OC)[C@@H](O)[C@H](C)O2)[C@H](C)[C@@H](O[C@@H]2O[C@H](C)C[C@H](N(C)C)[C@H]2O)[C@](C)(OC)C[C@@H](C)C(=O)[C@H](C)[C@@H](O)[C@]1(C)O` [SJ000286061-3, CLARITHROMYCIN], for which the CHRF288-11 %inh in experiment [1] (CHRF288-11 %inh, 10 µM) is on record as -0.08051%. Besides, the CMK %inh in experiment [2] (CMK %inh, 10 µM) is recorded as 1.841%. Further, the CMS %inh in experiment [3] (CMS %inh, 10 µM) is -1.005%. The M07e %inh in experiment [4] (M07e %inh, 10 µM) is 0.43%. Moreover, the ML-2 %inh in experiment [5] (ML-2 %inh, 10 µM) turned out to be 2.326%. In addition, the MOLM-13 %inh in experiment [6] (MOLM-13 %inh, 10 µM) came out at 2.582%. In addition, the MV4-11 %inh in experiment [7] (MV4-11 %inh, 10 µM) worked out at 1.904%. Also, the U937 %inh in experiment [8] (U937 %inh, 10 µM) came to 1.585%.
As to `NC(CCC(=O)NOC(=O)c1ccccc1)C(=O)N1CCCC1` (centres unmarked) [SJ000773150-1], the CHRF288-11 %inh in experiment [1] is listed as -3.643%. In addition, the CMK %inh in experiment [2] is on record as -2.389%. For the same compound, in experiment [3], the CMS %inh is listed as -1.088%. Moreover, in experiment [4], the M07e %inh is 3.014%. Besides, the ML-2 %inh in experiment [5] was 1.208%. Also, the MOLM-13 %inh in experiment [6] stood at 1.337%. The MV4-11 %inh in experiment [7] was -0.09979%. In addition, in experiment [8], the U937 %inh is reported as -0.8595%.
Turning to `COc1cc(Nc2nccc(Nc3ccc4c(C)n[nH]c4c3)n2)cc(OC)c1OC` [SJ000573319-1, U17574/67/1], the CHRF288-11 %inh in experiment [1] is reported as 80.56%. Further, the CMK %inh in experiment [2] is on record as 114.1%. For the same compound, the CMS %inh in experiment [3] stood at 87.58%. Also, in experiment [4], the M07e %inh is recorded as 71.44%. Besides, the ML-2 %inh in experiment [5] turned out to be 29.66%. The MOLM-13 %inh in experiment [6] was found to be 98.77%. Also, in experiment [7], the MV4-11 %inh is listed as 77.98%. Moreover, in experiment [8], the U937 %inh was 62.59%.
For the compound `COC(=O)C1=C(C)N(CCc2cc(OC)c(OC)c(OC)c2)C(=O)N[C@H]1c1ccccc1` [SJ000579768-1], the CHRF288-11 %inh in experiment [1] is given as -6.017%. In addition, the CMK %inh in experiment [2] is given as -0.2715%. For the same compound, the CMS %inh in experiment [3] is recorded as -1.498%. Further, the M07e %inh in experiment [4] is recorded as -5.412%. The ML-2 %inh in experiment [5] is -0.773%. Moreover, the MOLM-13 %inh in experiment [6] is reported as -2.193%. Further, the MV4-11 %inh in experiment [7] is recorded as 3.524%. In addition, the U937 %inh in experiment [8] is -0.6782%.
Regarding `CN1CCC(n2cnc(-c3ccc(F)cc3)c2-c2ccnc(NCCO)n2)CC1` [SJ000573246-1, TG19207-178A1], the CHRF288-11 %inh in experiment [1] was determined as 13.91%. Also, the CMK %inh in experiment [2] is listed as 15.99%. Also, the CMS %inh in experiment [3] is recorded as -0.04607%. Besides, the M07e %inh in experiment [4] came out at 3.039%. In experiment [5], the ML-2 %inh was determined as 6.134%. Also, the MOLM-13 %inh in experiment [6] is given as 21.36%. For the same compound, in experiment [7], the MV4-11 %inh was determined as 13.81%. For the same compound, in experiment [8], the U937 %inh is recorded as 1.73%.
Consider `c1ccc(-c2nc3n(c2-c2ccc4c(c2)OCO4)CCC3)nc1` [SJ000573174-1, JB42196-142B1], for which the CHRF288-11 %inh in experiment [1] is 104.5%. In addition, the CMK %inh in experiment [2] amounted to 48.28%. Besides, the CMS %inh in experiment [3] was found to be 32.28%. Besides, the M07e %inh in experiment [4] turned out to be 7.377%. Moreover, the ML-2 %inh in experiment [5] was determined as 5.523%. Moreover, in experiment [6], the MOLM-13 %inh came to 37.41%. In addition, in experiment [7], the MV4-11 %inh stood at 4.462%. Further, in experiment [8], the U937 %inh was found to be 1.96%.
With `O=C1NC(=O)C(c2cccc(Cl)c2)=C1Nc1ccc(Cl)c(C(=O)O)c1` [SJ000573179-1, RS98844-062A1], in experiment [1], the CHRF288-11 %inh is -5.305%. In addition, in experiment [2], the CMK %inh is reported as -1.769%. Further, the CMS %inh in experiment [3] is -1.594%. Further, the M07e %inh in experiment [4] is listed as -0.5868%. In experiment [5], the ML-2 %inh is 0.225%. Further, the MOLM-13 %inh in experiment [6] is given as -0.7042%. Further, the MV4-11 %inh in experiment [7] is -0.02775%. Also, in experiment [8], the U937 %inh turned out to be 1.114%.
On to `CCS(=O)(=O)c1ccc(OC)c(Nc2ncc(-c3cccc(-c4ccccc4F)c3)o2)c1` [SJ000573133-1, U16399/42/1], for which, in experiment [1], the CHRF288-11 %inh was determined as 3.996%. In addition, in experiment [2], the CMK %inh is -2.911%. For the same compound, in experiment [3], the CMS %inh is -1.131%. Moreover, the M07e %inh in experiment [4] is recorded as -0.6473%. Also, the ML-2 %inh in experiment [5] was determined as 1.693%. Besides, the MOLM-13 %inh in experiment [6] worked out at 73.99%. The MV4-11 %inh in experiment [7] worked out at 49.91%. Further, the U937 %inh in experiment [8] is -2.484%.
`O=C1CCc2cc(OCCCCc3nnnn3C3CCCCC3)ccc2N1` [SJ000285433-6, CILOSTAZOL]: in experiment [1], the CHRF288-11 %inh is -1.23%. In addition, the CMK %inh in experiment [2] came out at 3.033%. In addition, in experiment [3], the CMS %inh worked out at 1.219%. For the same compound, in experiment [4], the M07e %inh is listed as 4.292%. Further, the ML-2 %inh in experiment [5] was -1.307%. The MOLM-13 %inh in experiment [6] stood at 2.454%. Also, the MV4-11 %inh in experiment [7] was 1.479%. Besides, the U937 %inh in experiment [8] was -1.919%.
As to `Fc1cccc(COc2ccc(Nc3ncncc3C#Cc3ccccc3)cc2Cl)c1` [SJ000573262-1, U15872/50/1], in experiment [1], the CHRF288-11 %inh was -1.921%. Also, in experiment [2], the CMK %inh is listed as -0.522%. Besides, the CMS %inh in experiment [3] is on record as -2.059%. For the same compound, the M07e %inh in experiment [4] is given as -0.005299%. Besides, the ML-2 %inh in experiment [5] is given as 1.8%. Further, the MOLM-13 %inh in experiment [6] was -0.1156%. The MV4-11 %inh in experiment [7] came to 1.812%. In addition, the U937 %inh in experiment [8] is 1.725%.
As for `CCOc1ccc2c(-c3ccnc(Nc4cccc(C(F)(F)F)c4)n3)cnn2n1` [SJ000573265-1, U17838/110/3], in experiment [1], the CHRF288-11 %inh is reported as 2.566%. In addition, in experiment [2], the CMK %inh is recorded as -2.107%. The CMS %inh in experiment [3] is given as 0.8077%. Further, the M07e %inh in experiment [4] stood at 6.84%. The ML-2 %inh in experiment [5] came to 2.429%. Further, the MOLM-13 %inh in experiment [6] is 1.961%. Also, the MV4-11 %inh in experiment [7] came to 2.829%. For the same compound, the U937 %inh in experiment [8] is -3.226%.
Regarding `CCOc1cc(CC(=O)N[C@@H](CC(C)C)c2ccccc2N2CCCCC2)ccc1C(=O)O` [SJ000287528-3, REPAGLINIDE], in experiment [1] (CHRF288-11 %inh, 10 µM), the CHRF288-11 %inh is reported as 0.4521%. Besides, in experiment [2] (CMK %inh, 10 µM), the CMK %inh is on record as -1.863%. For the same compound, in experiment [3] (CMS %inh, 10 µM), the CMS %inh is on record as -3.811%. Further, the M07e %inh in experiment [4] (M07e %inh, 10 µM) was found to be 1.002%. Besides, the ML-2 %inh in experiment [5] (ML-2 %inh, 10 µM) is recorded as -0.6814%. Further, the MOLM-13 %inh in experiment [6] (MOLM-13 %inh, 10 µM) stood at 1.863%. In experiment [7] (MV4-11 %inh, 10 µM), the MV4-11 %inh is -2.004%. Moreover, in experiment [8] (U937 %inh, 10 µM), the U937 %inh was determined as 0.8964%.
On to `CC(=O)/N=c1/sc(S(N)(=O)=O)nn1C` [SJ000285971-5, METHAZOLAMIDE], for which, in experiment [1] (CHRF288-11 %inh, 10 µM), the CHRF288-11 %inh was -3.176%. Further, in experiment [2] (CMK %inh, 10 µM), the CMK %inh was -2.598%. Further, in experiment [3] (CMS %inh, 10 µM), the CMS %inh is -3.489%. Further, in experiment [4] (M07e %inh, 10 µM), the M07e %inh is listed as -1.211%. Also, the ML-2 %inh in experiment [5] (ML-2 %inh, 10 µM) was 3.001%. For the same compound, the MOLM-13 %inh in experiment [6] (MOLM-13 %inh, 10 µM) worked out at 0.5424%. For the same compound, the MV4-11 %inh in experiment [7] (MV4-11 %inh, 10 µM) is on record as -3.681%. Also, the U937 %inh in experiment [8] (U937 %inh, 10 µM) is recorded as -1.329%.
Regarding `FC(F)(F)CNc1nccc(-c2cnn3ncccc23)n1` [SJ000573348-1, U14929/198/1], the CHRF288-11 %inh in experiment [1] stood at 8.25%. For the same compound, the CMK %inh in experiment [2] stood at 5.414%. In addition, the CMS %inh in experiment [3] is given as 9.976%. Further, in experiment [4], the M07e %inh is recorded as 2.938%. Further, the ML-2 %inh in experiment [5] was determined as 3.221%. For the same compound, the MOLM-13 %inh in experiment [6] is 10.23%. The MV4-11 %inh in experiment [7] is 26.7%. Further, in experiment [8], the U937 %inh is recorded as 21.18%.
Take `CN(c1ccc(NC(=O)Nc2c(Cl)cccc2Cl)cc1)c1ccnc(Nc2cccc(CS(C)(=O)=O)c2)n1` [SJ000573099-1, U17983/31/1]: the CHRF288-11 %inh in experiment [1] is listed as 15.56%. Also, the CMK %inh in experiment [2] is listed as 37.49%. Besides, in experiment [3], the CMS %inh stood at 10.65%. In experiment [4], the M07e %inh is recorded as 50.22%. Further, in experiment [5], the ML-2 %inh is recorded as 37.92%. Further, the MOLM-13 %inh in experiment [6] is listed as 85.25%. Also, the MV4-11 %inh in experiment [7] is recorded as 78.59%. In experiment [8], the U937 %inh was determined as 19.94%.
